Source: patent publication US7605175B2, “Inhibitors of cyclin-dependent kinases, compositions and uses related thereto” (GPC Biotech AG, priority 2001, dated 2009)
Where two headings read alike, the source gives them in different places.

What was measured:
HCT-116 cells = test: Calcein AM viability assay, HCT-116; assay type: cell-based; details: Homo sapiens
Protocol: The potency of Cdk inhibitors, as measured by loss of cellular viability, was determined with the Calcein AM assay (Molecular Probes). Calcein AM is a substrate of intracellular esterases, which is cleaved only in viable cells to generate a fluorescent product that can be quantified with a fluorescent plate reader. The fluorescent signal is proportional to the number of viable cells, and thus loss of signal in response to the exposure of cells to Cdk inhibitors correlates with a loss of viability. This assay can distinguish cell cycle arrest, in which cells may still by viable, from loss of viability and is thus well suited for the evaluation of Cdk inhibitors. A compound that is a potent cytotoxic, may cause significant loss of cell viability in such assay.
Cellular IC50's were determined in the human colorectal carcinoma cell line, HCT-116, and the normal human fibroblast, IMR90. Protein adjusted IC50's were also determined in HCT-116.
HCT-116 or IMR90 cells were recovered from sub-confluent plates by trypsinization and 1,000 or 4,000 cells, respectively, were plated in 24-well dishes and incubated overnight at 37° C., 5% CO2. HCT-116 cells were cultured in RPMI-1640, 10% FCS, and IMR90 cells were cultured in Minimum Essential Medium-alpha, 10% FCS. After overnight incubation to allow adherence, the media was aspirated from each well and replaced with media containing a test compound at a concentration from 0 to 250 nM, spanning a total of 7 doses. The plates were returned to the incubator and cultured for an additional 72 hours (3 days). […] After 72-hours incubation with the test compound, the cells were washed twice with 1×PBS, taking special care to remove all residual buffer.
A 5 μM Calcein AM solution was prepared by dissolving a […] aliquot of Calcein (Molecular Probes catalog # C3100) in 50 μl DMSO. After the Calcein had completely dissolved (10 minutes at room temperature), it was diluted into 10 ml PBS. Calcein/PBS (0.5 ml) was added to each well. The plates were incubated for 75 minutes at 37° C. (protected from light) and the fluorescent signal was read on a fluorescent plate reader (excitation 485/20 and emission 530/25).

Cdc2/cyclin B = molecular target: T1, Cdc2/cyclin B (Homo sapiens, UniProt P06493); test: Biochemical kinase assay Cdc2/cyclin B; details: Table 6
T1 construct: purchased
Text: (§1) Enzymes: Cdc2/cyclin B was obtained from commercial sources. Cdk2/his-cyclin Eshort was expressed in Sf9 cells. Cdk2/cyclin A, cdk4/cyclin D1, and cdk6/cyclin D2 were expressed in Sf9 cells. Protein kinase A (catalytic subunit, from bovine heart) and protein kinase C (mixed isozymes from rat brain) were obtained from commercial sources.
(§2) Substrates: Histone H1 was from commercial sources. GST-Rb is glutathione-S-trans-ferase fused to the N-terminal of residues 379-928 of the Rb protein.
Assays: Cdc2/cyclinB activity was determined by measuring incorporation of radio-activity from adenosine [γ-^32P]triphosphate into Histone H1 using a TCA precipitation assay. Cdc2/cyclin B kinase and Histone H1 were obtained from commercial sources. The final assay solution contained 50 mM Tris.HCl, 10 mM MgCl2, 1 mM dithiothreitol, 50 μM adenosine triphosphate, 2 μCi ^32P, 10% dimethylsulfoxide (from compounds), pH 7.5, 20 μg Histone H1, 6 U enzyme in a 50 μL volume. Compounds were added at various concentrations between 1 nM and 10 μM. The reaction was started with the addition of enzyme, allowed to proceed for 20 min at 30° C., and stopped by the addition of 20 μL of stop solution (237 mM disodium ethylenediamine tetraacetate, 105 mM adenosine triphosphate, pH 8.0). The protein was precipitated by the addition of 35 μL 70% (w/v) trichloroacetic acid, and the precipitate was captured on a 96-well glass fiber filter plate (Millipore, Inc.), which had been wet with 25% (w/v) trichloroacetic acid. The filter was washed ten times with 25% (w/v) trichloroacetic acid, and the amount of incorporated ^32P was determined by scintillation counting after adding 100 μL scintillant (Microscint 20, Packard Instruments). Relative activity was determined by dividing the amount of radioactivity incorporated in the presence of compound by the amount of radioactivity incorporated in a control experiment containing DMSO alone but no compound. The background radioactivity, determined in an experiment containing 50 mM EDTA in place of compound, was subtracted from all results before calculations.

Cdk2/cyclin E = molecular target: T2, Cdk2/cyclin E (Homo sapiens, UniProt P24941); test: Biochemical kinase assay Cdk2/cyclin E; details: Table 6
T2 construct: made in house; host or cells: Sf9 insect cells
Text: as §1, §2
(§3) Cdk2/cyclin E, Cdk2/cyclin A, Cdk4/cyclin D1, and Cdk6/cyclin D2 activity was determined using a glutathione-sepharose capture assay. The enzymes were expressed in Sf9 insect cells as heterodimers, and the substrate (GST-Rb) was glutathione-S-transferase fused to residues 379 to 928 of Rb retinoblastoma protein, expressed in E. coli. The assay solution contained 50 mM Tris.HCl, 10 mM MgCl2, 1 mM dithiothreitol, 50 μM adenosine triphosphate, 2 μCi [γ-^33P]adenosine triphosphate, 10% dimethylsulfoxide (from compounds), pH 7.5, 40 μg GST-Rb, and enzyme in a 100 μL volume. Compounds were added at various concentrations between 1 nM and 10 μM. The reaction was allowed to proceed for 15 min at 30° C. and was stopped by the addition of 70 μL of stop solution (237 mM disodium ethylene-diamine tetraacetate, 105 mM adenosine triphosphate, pH 8.0). The GST-Rb was captured by binding to glutathione-sepharose bead (Amersham) for 110 min, and the suspension was filtered through a glass fiber filter. After washing the retained beads five time with phosphate-buffered saline containing 0.3% (w/v) Tween-20, the amount of ^33P incorporated was determined by scintillation counting after adding 100 μL scintillant. Relative activity was determined by dividing the amount of radioactivity incorporated in the presence of compound by the amount of radioactivity incorporated in a control experiment containing DMSO alone but no compound. The background radioactivity, determined in an experiment containing 50 mM disodium ethylenediamine tetraacetate in place of compound, was subtracted from all results before calculations.

Cdk4/cyclin D1 = molecular target: T3, Cdk4/cyclin D1 (Homo sapiens, UniProt P11802); test: Biochemical kinase assay Cdk4/cyclin D1; details: Table 6
T3 construct: made in house; host or cells: Sf9 insect cells
Text: as §1, §2, §3

[1] = HCT-116, non-protein adjusted, Table 6, read-out: HCT-116 viability IC50

T3 sequence (P11802 whole entry, species assumed): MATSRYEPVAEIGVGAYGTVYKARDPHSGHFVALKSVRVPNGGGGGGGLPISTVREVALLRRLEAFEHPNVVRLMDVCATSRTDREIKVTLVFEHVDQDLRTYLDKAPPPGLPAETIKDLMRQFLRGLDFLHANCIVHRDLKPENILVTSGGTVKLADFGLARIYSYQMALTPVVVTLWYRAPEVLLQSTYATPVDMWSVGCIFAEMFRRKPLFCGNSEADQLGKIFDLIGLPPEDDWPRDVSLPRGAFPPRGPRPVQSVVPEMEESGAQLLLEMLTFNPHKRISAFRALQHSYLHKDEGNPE
T3 sequence (P24385 whole entry partner, species assumed): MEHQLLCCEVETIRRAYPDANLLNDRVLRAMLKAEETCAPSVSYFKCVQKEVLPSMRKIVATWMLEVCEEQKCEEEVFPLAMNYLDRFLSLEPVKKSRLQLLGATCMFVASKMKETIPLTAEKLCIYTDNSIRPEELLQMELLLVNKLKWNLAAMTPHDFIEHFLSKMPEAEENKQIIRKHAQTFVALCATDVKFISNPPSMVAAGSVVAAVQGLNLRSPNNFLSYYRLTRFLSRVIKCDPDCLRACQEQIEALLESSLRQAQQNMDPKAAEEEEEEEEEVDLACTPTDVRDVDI
T1 sequence (P06493 whole entry, species assumed): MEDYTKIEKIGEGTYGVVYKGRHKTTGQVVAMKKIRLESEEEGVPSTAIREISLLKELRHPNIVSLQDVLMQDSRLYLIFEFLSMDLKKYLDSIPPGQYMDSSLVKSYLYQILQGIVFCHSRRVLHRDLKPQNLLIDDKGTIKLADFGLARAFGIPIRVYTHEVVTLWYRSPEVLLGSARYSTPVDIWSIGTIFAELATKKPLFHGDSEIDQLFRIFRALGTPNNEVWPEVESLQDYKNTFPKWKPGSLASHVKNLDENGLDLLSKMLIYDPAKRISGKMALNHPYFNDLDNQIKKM
T1 sequence (P14635 whole entry partner, species assumed): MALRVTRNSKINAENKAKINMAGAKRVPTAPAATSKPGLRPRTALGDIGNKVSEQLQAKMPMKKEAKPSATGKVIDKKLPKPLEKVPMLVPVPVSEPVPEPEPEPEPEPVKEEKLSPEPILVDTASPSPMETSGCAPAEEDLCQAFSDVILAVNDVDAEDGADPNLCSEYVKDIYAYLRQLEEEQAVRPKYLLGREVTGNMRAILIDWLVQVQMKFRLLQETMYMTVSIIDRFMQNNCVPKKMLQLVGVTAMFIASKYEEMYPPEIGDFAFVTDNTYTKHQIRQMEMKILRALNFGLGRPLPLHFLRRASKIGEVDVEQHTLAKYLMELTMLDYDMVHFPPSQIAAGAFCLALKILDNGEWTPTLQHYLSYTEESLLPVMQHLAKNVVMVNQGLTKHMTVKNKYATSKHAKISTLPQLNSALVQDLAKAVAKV

| SMILES | IC50 (HCT-116 cells; [1]) [nM] | IC50 (Cdc2/cyclin B) [nM] | IC50 (Cdk2/cyclin E) [nM] | IC50 (Cdk4/cyclin D1) [nM] | IC50 (HCT-116 cells; HCT-116, read-out: HCT-116 viability IC50) [nM] |
| --- | --- | --- | --- | --- | --- |
| CC(C)c1nn(-c2c(Cl)cccc2Cl)c2nc(Cc3ccc(O)c(CN4CCOCC4)c3)[nH]c(=O)c12 [Compound A5] | < 100 | < 1000 | < 100 | < 10000 |  |
| CC(C)c1nn(-c2c(Cl)cccc2Cl)c2nc(Cc3ccc(OCCOP(=O)(O)O)cc3)[nH]c(=O)c12 [Compound A62] | < 100 | < 100 | < 100 | < 10000 |  |
| CC(C)c1nn(-c2c(Cl)cc(Cl)cc2Cl)c2nc(Cc3ccc(CN4CCCC4)n3C)[nH]c(=O)c12 [Compound A43] | < 100 | < 1000 | < 100 | < 1000 |  |
| CCN1CCN(S(=O)(=O)c2cc(Cl)c(-n3nc(C(C)C)c4c(=O)[nH]c(Cc5ccc(OCCN6CCOCC6)cc5)nc43)c(Cl)c2)CC1 [Compound A53] | < 10 | < 1000 | < 1000 | < 10000 |  |
| CC(C)c1nn(-c2c(Cl)cccc2Cl)c2nc(Cc3ccc(C(=O)NOCCN4CCOCC4)cc3)[nH]c(=O)c12 [Compound A52] | < 100 | < 1000 | < 100 | < 1000 |  |
| CC(C)c1nn(-c2c(Cl)cccc2Cl)c2nc(Cc3ccc(OCCN4CCOCC4)cc3)[nH]c(=O)c12 [Compound A2] | < 100 | < 1000 | < 10 | < 10000 |  |
| CC(C)c1nn(-c2c(Cl)cc(Cl)cc2Cl)c2nc(Cc3ccc(CN4CCN(C(C)C)CC4)n3C)[nH]c(=O)c12 [Compound A42] | < 100 | < 1000 | < 100 | < 1000 |  |
| CC(C)c1nn(-c2c(Cl)cccc2Cl)c2nc(Cc3ccc(OCCOC(=O)[C@@H](N)C(C)C)cc3)[nH]c(=O)c12 [Compound A60] |  |  | < 100 |  | < 100 |
| CC(C)c1nn(-c2c(Cl)cccc2Cl)c2nc(Cc3ccc(CN4CCN(C(C)C)CC4)c(O)c3)[nH]c(=O)c12 [Compound A50] | < 100 | < 1000 | < 100 |  |  |
| Cc1noc(COc2ccc(-c3[nH]nc4c3C(=O)c3c(NC(=O)NN5CCOCC5)cccc3-4)cc2)n1 [Compound A35] |  | < 10 | < 100 | < 100 |  |
| O=C(Nc1cccc2c1C(=O)c1c-2n[nH]c1-c1ccc(S(=O)(=O)N2CCNCC2)cc1)NN1CCOCC1 [Compound A56] |  | < 100 | < 100 | < 1000 |  |
| COc1cc(-c2[nH]nc3c2C(=O)c2c(NC(=O)NN4CCOCC4)cccc2-3)ccc1OCCN1CCCC1 [Compound A31] |  | < 100 | < 100 | < 100 |  |
| O=C(Nc1cccc2c1C(=O)c1c(-c3ccc(OCCN4CCOCC4)cc3Cl)n[nH]c1-2)NN1CCOCC1 [Compound A28] |  | < 100 | < 100 | < 1000 |  |
| CC(C)c1nn(-c2c(Cl)cc(Cl)cc2Cl)c2nc(Cc3ccc(NS(=O)(=O)CCCN4CCCC4)cc3)[nH]c(=O)c12 [Compound A38] |  | < 1000 | < 100 | < 1000 |  |
| CC(C)c1nn(-c2c(Cl)cc(Cl)cc2Cl)c2nc(Cc3ccc(NS(=O)(=O)CCCN4CCCCC4)cc3)[nH]c(=O)c12 [Compound A48] | < 100 | < 1000 | < 100 |  |  |
| Cc1cc(-c2[nH]nc3c2C(=O)c2c(NC(=O)NN4CCOCC4)cccc2-3)ccc1OCCN1CCN(C(C)C)CC1 [Compound A24] |  | < 10 | < 10 | < 100 |  |
| Cc1cc(-c2[nH]nc3c2C(=O)c2c(NC(=O)NN4CCOCC4)cccc2-3)ccc1OCCN1CCCC1 [Compound A25] |  | < 100 | < 100 | < 100 |  |
| Cc1cc(OCCN2CCOCC2)ccc1-c1[nH]nc2c1C(=O)c1c(NC(=O)NN3CCN(C)CC3)cccc1-2 [Compound A7] |  | < 100 | < 100 | < 100 |  |
| Cc1noc(COc2ccc(-c3[nH]nc4c3C(=O)c3c(NC(=O)NN5CCN(C)CC5)cccc3-4)cc2)n1 [Compound A45] |  | < 10 | < 100 | < 100 |  |
| CN1CCN(NC(=O)Nc2cccc3c2C(=O)c2c-3n[nH]c2-c2ccc(OCCn3cccn3)cc2)CC1 [Compound A17] |  | < 10 | < 100 | < 100 |  |
| O=C(Nc1cccc2c1C(=O)c1c-2n[nH]c1-c1ccc(O)c(CN2CCOCC2)c1)NN1CCOCC1 [Compound A10] |  | < 10 | < 100 | < 1000 |  |
| CN(C)C(=O)CN1CCN(NC(=O)Nc2cccc3c2C(=O)c2c-3n[nH]c2-c2ccc(OCCN3CCCC3)cc2)CC1 [Compound A41] |  | < 1000 | < 100 | < 100 |  |
| CN1CCN(CCOc2ccc(-c3n[nH]c4c3C(=O)c3c(NC(=O)NN5CCN(C)CC5)cccc3-4)c(F)c2)CC1 [Compound A13] |  | < 100 | < 100 | < 100 |  |
| Cc1cc(OCCn2cccn2)ccc1-c1[nH]nc2c1C(=O)c1c(NC(=O)NN3CCN(C)CC3)cccc1-2 [Compound A11] |  | < 100 | < 100 | < 100 |  |
| Cc1cc(-c2[nH]nc3c2C(=O)c2c(NC(=O)NN4CCN(C)CC4)cccc2-3)ccc1OCCN1CCN(C(C)C)CC1 [Compound A18] |  | < 100 | < 100 | < 100 |  |
| O=C(Nc1cccc2c1C(=O)c1c-2n[nH]c1-c1ccc(OCC(=O)N2CCCC2)cc1)NN1CCOCC1 [Compound A46] |  | < 10 | < 100 | < 1000 |  |
| CC(C)N1CCN(NC(=O)Nc2cccc3c2C(=O)c2c-3n[nH]c2-c2ccc(OCCN3CCCC3)cc2)CC1 [Compound A23] |  | < 100 | < 10 | < 100 |  |
| CC(C)N1CCN(CCOc2ccc(-c3n[nH]c4c3C(=O)c3c(NC(=O)NN5CCOCC5)cccc3-4)cc2F)CC1 [Compound A22] |  | < 100 | < 10 | < 100 |  |
| CC(C)N1CCN(CCOc2ccc(-c3n[nH]c4c3C(=O)c3c(NC(=O)NN5CCOCC5)cccc3-4)c(F)c2)CC1 [Compound A16] |  | < 100 | < 100 | < 1000 |  |
